# Test results reported in patent US11439622B2 (OXFORD UNIVERSITY INNOVATION LIMITED, priority 2015, dated 2022).
# What was measured:
# Format in all cases: biochemical
# [1] = molecular target: VIM-2 (Veronese metallo-β-lactamase-2) (Escherichia coli, UniProt Q5U7L7); test: Enzyme inhibition assay, VIM-2; settings: read-out: pIC50 VIM-2 (converted)
# Procedure: (§1) The biological activity of the compounds of the present invention was tested using standard assay protocols.^7 The following representative enzymes NDM-1 (New Delhi metallo-β-lactamase-1), IMP-1 (Imipenemase-1) and VIM-2 (Veronese metallo-β-lactamase-2) were selected from different clinically relevant B1 metallo-β-lactamases.
# IMP-1 (Imipenemase-1) = IMP-1 (Imipenemase-1) (Serratia marcescens, UniProt P52699); test: Enzyme inhibition assay, IMP-1; settings: read-out: pIC50 IMP-1 (converted)
# IMP-1 (Imipenemase-1), sequence (P52699 19-246, looked up, species assumed): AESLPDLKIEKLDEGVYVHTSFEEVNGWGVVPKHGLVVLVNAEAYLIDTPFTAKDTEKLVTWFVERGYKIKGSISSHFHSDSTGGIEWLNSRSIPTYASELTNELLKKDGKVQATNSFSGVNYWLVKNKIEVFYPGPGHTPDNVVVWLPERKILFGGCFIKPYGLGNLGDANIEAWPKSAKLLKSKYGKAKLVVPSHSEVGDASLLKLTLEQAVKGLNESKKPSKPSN
# Procedure: as §1
# [2] = molecular target: NDM-1 (New Delhi metallo-β-lactamase-1) (Klebsiella pneumoniae, UniProt C7C422); test: Enzyme inhibition assay, NDM-1; settings: for IC50: read-out: pIC50 NDM-1 (converted)
# NDM-1 (New Delhi metallo-β-lactamase-1), sequence (C7C422 29-270, looked up, species assumed): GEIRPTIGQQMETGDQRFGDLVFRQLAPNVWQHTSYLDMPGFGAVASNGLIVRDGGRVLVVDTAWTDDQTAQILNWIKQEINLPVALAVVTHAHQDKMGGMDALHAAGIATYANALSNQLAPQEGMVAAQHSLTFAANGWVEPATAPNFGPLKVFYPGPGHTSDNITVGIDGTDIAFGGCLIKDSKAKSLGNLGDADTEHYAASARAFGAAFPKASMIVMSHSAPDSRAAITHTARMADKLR
# Procedure: as §1
Compound,IC50 [1] [nM],IC50 (IMP-1 (Imipenemase-1)) [nM],IC50 [2] [nM],pIC50 NDM-1 [2]
"Cc1cccc2c(-c3ccc(OC(F)(F)F)cc3)c(C(=O)O)[nH]c12 [Example 2, 7-methyl-3-(4-(trifluoromethoxy)phenyl)-1H-indole-2-carboxylic acid]",398,7940,50.1,–
"Cc1cccc2c(-c3cc(Cl)cc(Cl)c3)c(C(=O)O)[nH]c12 [Example 3, 3-(3,5-dichlorophenyl)-7-methyl-1H-indole-2-carboxylicacid]",< 5.01,5010,39.8,–
"Cc1cccc2c(-c3ccncc3)c(C(=O)O)[nH]c12 [Example 4, 7-methyl-3-(pyridin-4-yl)-1H-indole-2-carboxylic acid]",631,12600,63.1,–
"Cc1cccc2c(-c3ccc(C(N)=O)cc3)c(C(=O)O)[nH]c12 [Example 5, 3-(4-carbamoylphenyl)-7-methyl-1H-indole-2-carboxylic acid]",100,7940,31.6,–
"Cc1cccc2c(-c3ccc(C#N)cc3)c(C(=O)O)[nH]c12 [Example 7, 3-(4-cyanophenyl)-7-methyl-1H-indole-2-carboxylic acid]",200,7940,39.8,–
"Cc1cccc2c(-c3ccc([N+](=O)[O-])cc3)c(C(=O)O)[nH]c12 [Example 8, 7-methyl-3-(4-nitrophenyl)-1H-indole-2-carboxylic acid]",251,25100,79.4,–
"COc1ccc(-c2c(C(=O)O)[nH]c3c(C)cccc23)cc1 [Example 9, 3-(4-methoxyphenyl)-7-methyl-1H-indole-2-carboxylic acid]",251,7940,50.1,–
"Cc1cccc2c(-c3ccc(Br)cc3)c(C(=O)O)[nH]c12 [Example 10, 3-(4-bromophenyl)-7-methyl-1H-indole-2-carboxylic acid]",200,7940,25.1,–
"Cc1cccc2c(-c3ccc(C(F)(F)F)cc3)c(C(=O)O)[nH]c12 [Example 11, 7-methyl-3-(4-(trifluoromethyl)phenyl)-1H-indole-2-carboxylic acid]",316,12600,31.6,–
"Cc1cccc2c(-c3ccc(N4CCOCC4)cc3)c(C(=O)O)[nH]c12 [Example 13, 7-methyl-3-(4-morpholinophenyl)-1H-indole-2-carboxylic acid]",1580,10000,12.6,–
"Cc1cccc2c(-c3cccc(S(N)(=O)=O)c3)c(C(=O)O)[nH]c12 [Example 14, 7-methyl-3-(3-sulfamoylphenyl)-1H-indole-2-carboxylic acid]",794,–,50.1,–
"Cc1cccc2c(C3=CCCC3)c(C(=O)O)[nH]c12 [Example 27, 3-(cyclopent-1-en-1-yl)-7-methyl-1H-indole-2-carboxylic acid]",–,–,79.4,–
"Cc1cccc2c(-c3ccc(Cl)cc3)c(C(=O)O)n(C)c12 [Example 35, 3-(4-chlorophenyl)-1,7-dimethyl-indole-2-carboxylic acid]",–,–,501,–
"Cc1cc(C)cc(-c2c(C(=O)O)[nH]c3c(C)cccc23)c1 [Example 38, 3-(3,5-dimethylphenyl)-7-methyl-1H-indole-2-carboxylic acid]",158,–,39.8,–
"Cc1cccc2c(-c3ccccc3Cl)c(C(=O)O)[nH]c12 [Example 39, 3-(2-chlorophenyl)-7-methyl-1H-indole-2-carboxylic acid]",126,–,126,–
"Cc1cccc2c(I)c(C(=O)O)[nH]c12 [Example 46, 3-iodo-7-methyl-1H-indole-2-carboxylic acid]",–,–,631,–
"O=C(O)c1[nH]c2c(C(F)(F)F)cccc2c1-c1ccc(F)cc1 [Example 51, 3-(4-fluorophenyl)-7-(trifluoromethyl)-1H-indole-2-carboxylic acid]",–,2000,251,–
"CNC(=O)c1ccc(-c2c(C(=O)O)[nH]c3c(C(C)C)cccc23)cc1 [Example 87, 7-isopropyl-3-(4-(methylcarbamoyl)phenyl)-1H-indole-2-carboxylic acid]",–,77.6,12.6,–
"Cc1ccc(-c2c(C(=O)O)[nH]c3c(C(C)C)cccc23)s1 [Example 89, 7-isopropyl-3-(5-methylthiophen-2-yl)-1H-indole-2-carboxylic acid]",–,21.4,26.9,–
"CC(=O)NCc1ccc(-c2c(C(=O)O)[nH]c3c(C(C)C)cccc23)cc1 [Example 90, 3-(4-(acetamidomethyl)phenyl)-7-isopropyl-1H-indole-2-carboxylic acid]",–,61.7,12.6,–
"CN(C)C(=O)c1ccc(-c2c(C(=O)O)[nH]c3c(C(C)(C)C)cccc23)cc1 [Example 92, 7-(tert-butyl)-3-(4-(dimethylcarbamoyl)phenyl)-1H-indole-2-carboxylic acid]",–,79.4,53.7,–

Compound,IC50 [1] [nM],IC50 (IMP-1 (Imipenemase-1)) [nM],IC50 [2] [nM],pIC50 NDM-1 [2]
"CN(C)S(=O)(=O)c1ccc(-c2c(C(=O)O)[nH]c3c(C(C)(C)C)cccc23)cc1 [Example 93, 7-(tert-butyl)-3-(4-(N,N-dimethylsulfamoyl)phenyl)-1H-indole-2-carboxylic acid]",–,85.1,79.4,–
"CC(C)c1cccc2c(-c3ccc(S(=O)(=O)N4CCOCC4)cc3)c(C(=O)O)[nH]c12 [Example 95, 7-isopropyl-3-(4-(morpholinosulfonyl)phenyl)-1H-indole-2-carboxylicacid]",–,24,2.69,–
"CC(C)c1cccc2c(-c3ccc(CNS(C)(=O)=O)cc3)c(C(=O)O)[nH]c12 [Example 96, 7-isopropyl-3-(4-(methylsulfonamidomethyl)phenyl)-1H-indole-2-carboxylic acid]",–,7.76,3.98,–
"CC(C)c1cccc2c(-c3ccc(CN(C)C)cc3)c(C(=O)O)[nH]c12 [Example 97, 3-(4-((dimethylamino)methyl)phenyl)-7-isopropyl-1H-indole-2-carboxylicacid]",–,437,10,–
"CC(C)c1cccc2c(-c3ccc(N4CCOCC4)nc3)c(C(=O)O)[nH]c12 [Example 98, 7-isopropyl-3-(6-morpholinopyridin-3-yl)-1H-indole-2-carboxylic acid]",–,219,6.76,–
"CC(C)c1cccc2c(-c3ccc(S(=O)(=O)N4CCCC4)cc3)c(C(=O)O)[nH]c12 [Example 99, 7-isopropyl-3-(4-(pyrrolidin-1-ylsulfonyl)phenyl)-1H-indole-2-carboxylic acid]",–,8.32,0.851,–
"CC(C)c1cccc2c(-c3ccc(Cn4cnnn4)cc3)c(C(=O)O)[nH]c12 [Example 100, 3-(4-((1H-tetrazol-1-yl)methyl)phenyl)-7-isopropyl-1H-indole-2-carboxylic acid]",–,22.4,15.8,–
"CC(C)c1cccc2c(-c3ccc(C(=O)N(C)C)cc3Cl)c(C(=O)O)[nH]c12 [Example 101, 3-(2-chloro-4-(dimethylcarbamoyl)phenyl)-7-isopropyl-1H-indole-2-carboxylic acid]",–,1550,15.8,–
"O=C(O)c1[nH]c2ccccc2c1-c1ccccc1 [Example 109, 3-phenyl-1H-indole-2-carboxylic acid]",–,–,3160,–
"Cc1cccc2c(-c3ccc(F)cc3)c(C(=O)NNc3ccc(S(C)(=O)=O)cc3)[nH]c12 [Example 110, 3-(4-fluorophenyl)-7-methyl-N′-(4-(methylsulfonyl)phenyl)-1H-indole-2-carbohydrazide]",–,–,2000,–
"O=C(O)c1[nH]c2c(F)cccc2c1-c1ccc(F)cc1 [Example 112, 7-fluoro-3-(4-fluorophenyl)-1H-indole-2-carboxylic acid]",7940,–,1580,–
"CS(=O)(=O)c1ccc(NNC(=O)c2[nH]c3ccccc3c2-c2ccccc2)cc1 [Example 113, N′-(4-(methylsulfonyl)phenyl)-3-phenyl-1H-indole-2-carbohydrazide]",–,–,7940,–
"Cc1cccc2cc(C(=O)O)[nH]c12 [Example 114, 7-methyl-1H-indole-2-carboxylic acid]",–,–,3160,–
"Cc1cccc2c(Br)c(C(=O)O)[nH]c12 [Example 115, 3-bromo-7-methyl-1H-indole-2-carboxylic acid]",–,–,1580,–
"Cc1cccc2c(C3CCNCC3)c(C(=O)O)[nH]c12 [Example 118, 7-methyl-3-(piperidin-4-yl)-1H-indole-2-carboxylic acid]",–,> 100000,15800,–
"Cc1ccc2[nH]c(C(=O)O)c(-c3ccc(F)cc3)c2c1 [Example 121, 3-(4-fluorophenyl)-5-methyl-1H-indole-2-carboxylic acid]",39800,–,6310,–
"CNC(=O)c1[nH]c2c(C(C)C)cccc2c1-c1ccc(S(=O)(=O)N(C)C)cc1 [Example 122, 3-(4-(N,N-dimethylsulfamoyl)phenyl)-7-isopropyl-N-methyl-1H-indole-2-carboxamide]",> 20000,> 20000,–,–
"CC(C)c1cccc2c(-c3ccc(S(=O)(=O)N(C)C)cc3)c(C(N)=O)[nH]c12 [Example 125, 3-(4-(N,N-dimethylsulfamoyl)phenyl)-7-isopropyl-1H-indole-2-carboxamide]",–,–,–,N.I.
"CC(C)c1cccc2c(-c3ccc(S(=O)(=O)N(C)C)cc3)c(C#N)[nH]c12 [Example 126, 4-(2-cyano-7-isopropyl-1H-indol-3-yl)-N,N-dimethylbenzenesulfonamide]",–,–,–,N.I.
"CC(C)c1cccc2c(-c3ccc(S(=O)(=O)N(C)C)cc3)c(C(=O)Nc3ncco3)[nH]c12 [Example 128, 3-(4-(N,N-dimethylsulfamoyl)phenyl)-7-isopropyl-N-(oxazol-2-yl)-1H-indole-2-carboxamide]",–,–,214,–
